Assay results reported in paper PMC8037814, “Polymorphic Characterization, Pharmacokinetics, and Anti-Inflammatory Activity of Ginsenoside Compound K Polymorphs” (Molecules, 2021).
“And” between values parts separate entries of the source, which are not always exact repeats. Identical values can stand only once.

What was measured:
[1] = DSC thermal analysis of CK polymorphs; assay type: physicochemical; settings: 20 K/min from 20 to 400 °C, dry nitrogen flow
Procedure: DSC measurements were performed on a DSC204 Phoenix calorimeter (NETZSCH, Selb, Germany) with a heating rate of 20 K/min from 20 to 400 °C. The dry nitrogen flow was about 50 mL/min. Data were analyzed using NETZSCH analysis software.

[2] = Pharmacokinetics after oral administration of CK polymorphs in rats (20 mg/kg); assay type: in vivo, Sprague-Dawley rats; settings: for Fabs (absolute bioavailability): p.o. 20 mg/kg vs i.v. 10 mg/kg, dose-adjusted AUC ratio; for t1/2z / AUC(0–t) / AUC(0–∞) / CLz/F / Cmax / Vz/F: p.o. 20 mg/kg, 20 mg/kg
[3] = as above; assay type: in vivo, Sprague-Dawley rats; settings: p.o. 20 mg/kg, individual rats 1-3
[4] = system: carrageenan-induced acute paw inflammation; experiment: Paw swelling test induced by carrageenan in rats; assay type: in vivo, Sprague-Dawley rats; parameters: paw volume: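 right hind paw volume measured with a plethysmometer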; settings: listed as From III; for paw volume / paw edema: mean±SD of 6 rats; for edema inhibition: versus model group
Summary of the method: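 Rats (six per group, half of each sex) received compound at 10 or 20 mg/kg, suspended in 0.5% CMC-Na, before carrageenan challenge. Paw edema (%) = (Vn − V0)/V0 × 100 over time; inhibitory rate relative to model group, compared by t-test.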

[5] = 10 mg/kg p.o. qd 3 days, 3h after carrageenan
[6] = 10 mg/kg p.o. qd 3 days, 4h after carrageenan
[7] = 10 mg/kg p.o. qd 3 days, 5h after carrageenan
[8] = 10 mg/kg p.o. qd 3 days, 6h after carrageenan
[9] = 20 mg/kg p.o. qd 3 days, 3h after carrageenan
[10] = 20 mg/kg p.o. qd 3 days, 4h after carrageenan
[11] = 20 mg/kg p.o. qd 3 days, 5h after carrageenan
[12] = 20 mg/kg p.o. qd 3 days, 6h after carrageenan

CC(C)=CCCC(C)(OC1OC(CO)C(O)C(O)C1O)C1CCC2(C)C1C(O)CC1C3(C)CCC(O)C(C)(C)C3CCC12C [Form III, 20-O-β-D-glucopyranosyl-20(S)-protopanaxadiol]
DSC onset of the decomposition endotherm (thermodynamical stability) [1]: 255.9 °C
Fabs (absolute bioavailability) ([2]; female rats): 5.85%
t1/2z ([2]; female rats, individual rats 1-3): 2.82 h and 3.06 h and 2.56 h
AUC(0–t) ([2]; female rats, mean ± SD (n = 3)): 1869.55 ± 618.65 ng·h/mL and 1869.6 ± 618.65 ng·h/mL
AUC(0–∞) ([2]; female rats, mean ± SD (n = 3)): 1896.19 ± 604.12 ng·h/mL and 1896.2 ± 604.12 ng·h/mL
CLz/F ([2]; female rats, mean ± SD (n = 3)): 186.5 ± 50.3 mL/min/kg and 187 ± 50.3 mL/min/kg
Cmax ([2]; female rats, mean ± SD (n = 3)): 355.12 ± 79.98 ng/mL and 355.1 ± 79.98 ng/mL
Vz/F ([2]; female rats, mean ± SD (n = 3)): 44.76 ± 9.37 L/kg and 44.8 ± 9.37 L/kg
t1/2z ([2]; female rats, mean ± SD (n = 3)): 2.81 ± 0.25 h and 2.8 ± 0.25 h
Fabs (absolute bioavailability) ([2]; male rats): 3.90%
Vz/F ([2]; male rats, individual rats 1-3): 148.10 L/kg and 49.55 L/kg and 83.24 L/kg
AUC(0–t) ([2]; male rats, mean ± SD (n = 3)): 1171.83 ± 462.65 ng·h/mL and 1171.8 ± 462.65 ng·h/mL
AUC(0–∞) ([2]; male rats, mean ± SD (n = 3)): 1183.48 ± 466.08 ng·h/mL and 1183.5 ± 466.08 ng·h/mL
CLz/F ([2]; male rats, mean ± SD (n = 3)): 322.7 ± 158 mL/min/kg and 323 ± 158 mL/min/kg
Cmax ([2]; male rats, mean ± SD (n = 3)): 151.15 ± 64.45 ng/mL and 151.2 ± 64.45 ng/mL
Vz/F ([2]; male rats, mean ± SD (n = 3)): 93.63 ± 50.09 L/kg and 93.6 ± 50.1 L/kg
t1/2z ([2]; male rats, mean ± SD (n = 3)): 3.3 ± 0.58 h
AUC(0-t) ([3]; female rats): 1577.20 ng·h/mL and 2580.19 ng·h/mL and 1451.26 ng·h/mL
AUC(0-∞) ([3]; female rats): 1582.68 ng·h/mL and 2592.62 ng·h/mL and 1513.29 ng·h/mL
CLz/F ([3]; female rats): 210.7 mL/min/kg and 128 mL/min/kg and 220.3 mL/min/kg
Cmax ([3]; female rats): 263.79 ng/mL and 412.66 ng/mL and 388.92 ng/mL
Vz/F ([3]; female rats): 51.35 L/kg and 34.03 L/kg and 48.90 L/kg
AUC(0-t) ([3]; male rats): 656.21 ng·h/mL and 1550.66 ng·h/mL and 1308.63 ng·h/mL
AUC(0-∞) ([3]; male rats): 662.23 ng·h/mL and 1560.11 ng·h/mL and 1328.10 ng·h/mL
CLz/F ([3]; male rats): 503.3 mL/min/kg and 213.7 mL/min/kg and 251 mL/min/kg
Cmax ([3]; male rats): 90.26 ng/mL and 144.54 ng/mL and 218.65 ng/mL
t1/2z ([3]; male rats): 2.68 h and 3.83 h and 3.40 h
paw volume ([4]; 10 mg/kg p.o. qd 3 days, 0h (before carrageenan)): 1.60±0.11
paw edema [4, 5]: 56.76±9.61%
paw volume [4, 5]: 2.50±0.06
edema inhibition [4, 5]: 11.69%
paw edema [4, 6]: 58.19±18.49%
paw volume [4, 6]: 2.52±0.17
edema inhibition [4, 6]: 6.69%
paw edema [4, 7]: 42.15±12.34%
paw volume [4, 7]: 2.27±0.14
edema inhibition [4, 7]: 18.56%
paw edema [4, 8]: 30.81±14.08%
paw volume [4, 8]: 2.08±0.15
edema inhibition [4, 8]: 21.63%
paw volume ([4]; 20 mg/kg p.o. qd 3 days, 0h (before carrageenan)): 1.63±0.12
paw edema [4, 9]: 55.29±13.62%
paw volume [4, 9]: 2.53±0.25
edema inhibition [4, 9]: 13.98%
paw edema [4, 10]: 48.28±7.79%
paw volume [4, 10]: 2.42±0.13
edema inhibition [4, 10]: 22.59%
paw edema [4, 11]: 34.20±12.28%
paw volume [4, 11]: 2.18±0.15
edema inhibition [4, 11]: 33.94%
paw edema [4, 12]: 27.94±7.14%
paw volume [4, 12]: 2.08±0.08
edema inhibition [4, 12]: 28.94%
